“And” between values parts separate entries of the source, which are not always exact repeats. Identical values can stand only once. Where no end group is shown, it is not given here. [ ]: non-standard residue; d: D form. βAla = NCCC(=O)O
What was measured:
[1] = tested on: suture-embolized MCAO model, rat cerebral ischemic stroke; assay: Dose-effect experiment, rat neurological function score NSS (Example 10); type: in vivo, Sprague-Dawley (SD) rats; settings: mean ± SD
Procedure: Measurement time: 24 hours before and after modeling;
Measurement method: a motor function test, sensory test, balance test, and reflex and abnormal behavior test were performed on animals, according to the rat neurological function score scale (NS S) for details.

[2] = Dose-effect experiment, body weight of MCAO model animals (Example 10); settings: mean ± SD
Procedure: The establishment of rat model: the rats were placed in an anesthesia induction box filled with 3.0% isoflurane for anesthesia induction. Anesthesia-induced animals were transferred to the operating table, and anesthesia was maintained with 2.0%˜2.5% isoflurane at 200 mL/min using a small-animal gas anesthesia machine, and the eyelid reflex and pain response of the rats were observed. The surgery can be started only after the eyelid reflex response and the pain response on limbs and tail disappeared. • A. Isolating and exposing blood vessels: the skin of the surgical area was shaved, and the rat was placed under a surgical microscope. The skin of the rat was cut along the midline with ophthalmic scissors, with a cut of about 2 cm length. […]
Animals measured: all the surviving experimental animals planned to be measured;
Measurement time: the body weight was measured at least twice during the accommodation, and each batch of rats were weighed once on the day before the surgery and on the day of dissection to calculate the amount of drug administered and the anesthetic applied; the body weight was measured twice a week after the surgery.

[3] = tested on: suture-embolized MCAO model, rat cerebral ischemic stroke; assay: Dose-effect experiment, Bederson score (Example 10); type: in vivo, Sprague-Dawley (SD) rats; settings: 3 mg/kg group; 1 hour after ischemia, i.e. before dosing (model check); mean ± SD
Procedure: Measurement time: 1 hour after ischemia on the day of modeling;
Animals measured: all the animals survived in surgery;
Measurement method: the Bederson scoring standard was used to score animals.

[4] = tested on: suture-embolized MCAO model, rat cerebral ischemic stroke; assay: Dose-effect experiment, suture-embolized MCAO ischemia-reperfusion, TTC infarct size and inhibition rate (Example 10); type: in vivo, Sprague-Dawley (SD) rats
Procedure: The establishment of rat model: the rats were placed in an anesthesia induction box filled with 3.0% isoflurane for anesthesia induction. Anesthesia-induced animals were transferred to the operating table, and anesthesia was maintained with 2.0%˜2.5% isoflurane at 200 mL/min using a small-animal gas anesthesia machine, and the eyelid reflex and pain response of the rats were observed. The surgery can be started only after the eyelid reflex response and the pain response on limbs and tail disappeared. • A. Isolating and exposing blood vessels: the skin of the surgical area was shaved, and the rat was placed under a surgical microscope. The skin of the rat was cut along the midline with ophthalmic scissors, with a cut of about 2 cm length. Through the right neck of the rat, the muscle tissue of the right neck was bluntly isolated and opened with a microforcep to expose the right common carotid artery (CCA), and then isolated upward along the common carotid artery to further expose the external carotid artery (ECA) and internal carotid artery (ICA); • B. The ECA was ligated and the ICA was temporarily clamped; the proximal end and distal end of CCA were threaded separately, the distal end was tied tightly and the proximal end was tied with a loose knot, and a small incision was made between the two threads; • C. Inserting the suture emboli: A No. 4-0 suture emboli was inserted through the incision of CCA, pushed slowly and gently into the internal carotid artery, and stopped at the artery clamp of ICA, the pre-set thread was tied tightly (to avoid severe bleeding when pushing the suture emboli), then the artery clamp that blocked the blood flow of ICA was removed, and the suture emboli was immediately pushed into ICA until entering into the cranium. At the moment, one should be careful not to insert the suture emboli into the pterygopalatine artery, which is another branch of the internal carotid artery (the pterygopalatine artery is one of the extra-cranial branches of ICA; when the suture emboli entered the pterygopalatine artery to a depth of about 10 mm, it cannot be inserted further, at the moment one should slightly draw back the suture emboli, adjust the direction, and insert again); • D. Fixing the suture emboli and suturing the incision: if one felt slight resistance when the suture emboli was inserted about 18 mm depth from the bifurcation of the common carotid artery, it means that the tip of the suture emboli has entered into the cerebral anterior artery (ACA), and the side wall of the suture emboli has blocked the opening of the middle cerebral artery; at the moment, the insertion was terminated and the time was recorded. […]

[5] = tested on: patients with acute ischemic stroke (AIS) undergoing endovascular thrombectomy; settings: 2.6 mg/kg intravenous injection; cited from earlier work
[6] = tested on: rat model of cerebral ischemia (middle cerebral artery occlusion, MCAO); assay: MCAO rat cerebral ischemia model, blinded behavioral scoring 0-5 points (Example 9); type: in vivo, SD rats; settings: 3 mg/kg tail vein; for Behavioral score, mean value / Behavioral score: 22-24 h after suturation, scale 0-5 points; for Behavioral score, mean value: mean of 6 rats
Procedure: (§1) In order to determine the application of the synthetic peptides provided by the present invention in neurological diseases, the present invention uses SD rats as experimental objects, and performs middle cerebral artery occlusion method (MCAO) to prepare rat model of cerebral ischemia. These rats were injected drugs intravenously 1-2 hours after ischemia, and a behavioral observation and scoring was conducted for each animal after 22-24 hours. After the behavioral observation, the experimental rats were euthanized and their brains were removed, cut to sections and stained with TTC for quantitative analysis, and the cerebral infarct volume % was calculated.
(§2) The experimental SD rat was weighed and anesthetized with chloral hydrate. After anesthesia, the limbs of the rat were fixed, and the rat was placed in a supine position, connected to the small-animal monitor, and monitored for important physiological parameters such as body temperature, blood pressure and heart rate, etc. The rat's neck was shaved and disinfected with 75% alcohol cotton ball. A middle incision of about 2 cm length was then made on the neck of the experimental rat, and the submandibular gland of the rat was bluntly separated while avoiding damage to the gland. Then, the left common carotid artery (CCA) of the experimental rat was bluntly separated, and the internal carotid artery (ICA) and external carotid artery (ECA) were carefully separated upward along the CCA. Any damage to vagus nerves was avoided during the separation. The CCA and ICA were clamped respectively with two artery clamps, and the distal end of the ECA was cut off and a silicone suture emboli was inserted into the ECA “port” to the ICA artery clamp, then the artery clamp was quickly loosened and the tip of the suture emboli was put in through the artery clamp quickly before clamping the ICA again. This step was repeated and the suture emboli was put in further until the black mark of the suture emboli reached the bifurcation of the ECA and ICA, and the tip of the suture emboli blocked the middle cerebral artery and then the ECA “port” and the suture emboli was tied tightly using a thread in order to prevent the “escape” of suture emboli or bleeding after the rat waked up. The artery clamps on the CCA and ICA were then loosed and removed to restore the tissue to its original position, and an appropriate amount of penicillin was applied to prevent wound infection. A medical suture needle with thread was used to suture, and the wound was disinfected using povidone-iodine again after the suturation. The experimental rats were monitored with the small-animal monitor to evaluate if their physiological parameters were normal, and the rats were placed on a small-animal electric blanket to keep their body temperature until they waked up, and placed in animal cages.
(§3) The drug to be tested was prepared as 3 mg/mL solution. The drug was dosed via tail vein 1-2 h after the suturation.
(§4) During the drug administration, the rat was fastened with a fastening device, and the drug to be tested was injected into the tail vein of the rat at 3 mg/kg using 1 mL syringe, the drug was injected slowly to reduce the cardiopulmonary load of the experimental rat.
(§5) The animals were divided into different test groups, with 6 rats for each group.
(§6) Drug groups S1 (NA1), S8 (beta-Ala-His-Gly) and S9 (Gly-beta-Ala-His): administered via tail vein after the suturation;
The behavioral observation and scoring were performed on each animal 22-24 h after the suturation.

[7] = tested on: experimental cerebral ischemia-reperfusion in animals; settings: cynomolgus monkeys, preclinical ischemic stroke model; cited from earlier work
[8] = tested on: rat model of cerebral ischemia (middle cerebral artery occlusion, MCAO); assay: MCAO rat cerebral ischemia model, TTC staining, cerebral infarct volume (Example 9); type: in vivo, SD rats; settings: for Cerebral infarction volume (TTC quantification), mean value / Cerebral infarction volume (TTC quantification): 3 mg/kg tail vein 1-2 h after suturation, read 22-24 h; for Cerebral infarction volume (TTC quantification), mean value: mean of 6 rats
Procedure: as §1, §2, §3, §4, §5, §6
After behavioral observations, experimental rats were euthanized and their brains were removed. The brain tissue was transversely cut into 6 slices with a 2 mm thickness, then transferred to TTC staining solution, incubated in a 37° C. incubator without light for 10 min, and taken pictures. The TTC-stained brain tissue and the remaining non-stained brain tissue were stored at −20° C.
Quantitative analysis of photos after TTC staining was performed using Image J software. […]

[9] = 3 mg/kg group, D 0 = 1 day before surgery (baseline)
[10] = 3 mg/kg i.v., D 2 = 1 day after surgery

Row | Substance | Behavioral score, mean value [6] | Behavioral score ([6]; rat No. 1) | Behavioral score ([6]; rat No. 2) | Behavioral score ([6]; rat No. 3) | Behavioral score ([6]; rat No. 4) | Behavioral score ([6]; rat No. 5) | Behavioral score ([6]; rat No. 6) | Cerebral infarction volume (TTC quantification), mean value [8] | Cerebral infarction volume (TTC quantification) ([8]; rat No. 1) | Cerebral infarction volume (TTC quantification) ([8]; rat No. 2) | Cerebral infarction volume (TTC quantification) ([8]; rat No. 3) | Cerebral infarction volume (TTC quantification) ([8]; rat No. 4) | Cerebral infarction volume (TTC quantification) ([8]; rat No. 5) | Cerebral infarction volume (TTC quantification) ([8]; rat No. 6) | other results
1 | YGRKKRRQRRRKLSSIESDV [S1, Nerinetide] | 2.0 | 2 | 2 | 2 | 2 | 1 | 3 | 0.157 | 0.187 | 0.218 | 0.153 | 0.145 | 0.107 | 0.134 | NSS score D 0 [1, 9]: 0 ± 0; NSS score D 2 [1, 10]: 8.00±0.76; Weight D 0 [2, 9]: 251.91 ± 8.69 g; Weight D 2 [2, 10]: 203.7 ± 10.94 g; Bederson [3]: 3 ± 0; Infarct weight ([4]; 3 mg/kg i.v. once within 10 min after reperfusion, 24 h after treatment, mean ± SD): 0.24 ± 0.02 g; Infarct size ([4]; 3 mg/kg i.v. once within 10 min after reperfusion, TTC 24 h after treatment, infarct weight / whole brain weight, mean ± SD): 16.74±3.14%; Inhibition rate of cerebral infarction ([4]; 3 mg/kg i.v., calculated from infarct size vs model control group): 33%; Effect on patient's prognosis [5]: improved patient's prognosis; Behavioral score, mean value ([6]; listed as NA1): 2.0±0.6; Effect on infarct size of experimental cerebral ischemia-reperfusion [7]: reduce the infarct size
2 | Gly-[βAla]-His [S9] | 2.0 | 3 | 3 | 2 | 2 | 1 | 1 | 0.197±0.059 and 0.197 | 0.239 | 0.206 | 0.208 | 0.263 | 0.171 | 0.095 | Behavioral score, statistical comparison with S1 (NA1) [6]: not statistically different from S1; Behavioral score, mean value ([6]; listed as Gly-beta-Ala-His): 2.0±0.9; Infarct volume, statistical comparison with S1 (NA1) ([8]; 3 mg/kg tail vein): not statistically different from S1
